Each structure is given as a SMILES string.

In data set [1] the test system is vascular smooth muscle cells, MG-63 cell line, HepG2 cell line. Kind of data set: Cellular vitamin K uptake in three cell types. The following applies: for cellular uptake compared with other K vitamins: all cells, mixture containing 1 μmol/L of each vitamin. The format is cell-based. How it is done: (§1) This series of cell culture experiments describe vitamin K uptake and metabolism under various conditions. The following forms of vitamin K were compared: K1, MK-4, MK-7, MK-8 and MK-9. They were tested in three different cell types: the vascular smooth muscle cells, the osteoblast-like MG-63 cell line and the hepatocyte-like HepG2 cell line. In all experiments the vitamins were used as a mixture containing 1 μmol/L of each vitamin. All data are the means of triplicate experiments.
(§2) Cells were grown until 80% confluence after which vitamin K was added in different concentrations (see FIGS. 5A-C). The added vitamin K concentration is given as nmol/L of culture medium, the vitamin K recovered is given as nmol/g of cellular protein. Note the different scales for each vitamin.
Cellular uptake of K vitamins was followed in time. In all cases a mixture of the various K vitamins (1 μmol/L final concentration in the culture medium) was added to the cells after they had grown to 80% confluence. […] The mechanism behind this cellular preference for MK-7 is not quite clear.

Data set [2] deals with vascular smooth muscle cells. Kind of data set: Carboxylated matrix Gla-protein in culture medium with a single form of vitamin K. The format is cell-based. To be noted: 1% FCS, single form of vitamin K 1 μmol/L, 24 hours incubation. On the procedure:
(§3) Since under standard cell culture conditions no epoxides are formed, we have applied sub-optimal growth conditions by decreasing the fetal calf serum in the culture medium to 1% (v/v). […] This was ruled out in an experiment in which VSMC and MG63 were grown at 1% FCS and with only one single form of vitamin K present (1 μmol/L).

Data set [3] relates to MG63. In words: Carboxylated osteocalcin in culture medium with a single form of vitamin K. The following applies: 1% FCS, single form of vitamin K 1 μmol/L, 24 hours incubation. In kind it is cell-based. On the procedure:
as §3

Data set [4] has as its system vascular smooth muscle cells, MG-63 cell line, HepG2 cell line. In words: K epoxide formation without warfarin under cell starvation (1% fetal calf serum). The format is cell-based. The following applies: no warfarin, fetal calf serum decreased to 1% (v/v). How it is done:
as §1, §3

For data set [5] the test system is unchanged. In words: K epoxide formation in the presence of warfarin (bypassing of warfarin) in three cell types. The format is cell-based. The following applies: for interference with warfarin: 10 μmol/L warfarin added 18 h before and present during vitamin K incubation. How it is done:
as §1
(§4) Under normal conditions, all forms of vitamin K are taken up in their quinone form, and they are reduced into the hydroquinone before being active as a cofactor for the enzyme gammaglutamylcarboxylase. During the carboxylation they are oxidized into epoxides, which can be reduced by the membrane-bound enzyme VKOR. VKOR forms the target for drugs known as coumarin derivatives, which inactivate the enzyme and thus block the recycling of K epoxides. Vitamin K quinones (and not the epoxides) can be reduced by a second enzyme system, known as DT diaphorase. […] Coumarin derivatives are widely used as oral anticoagulants; their mode of action is based on the inhibition of clotting factor carboxylation in the liver. Interference with coumarin derivatives is thus a potential risk of vitamin K supplements. Therefore we have investigated whether and to which extend the various K vitamins interfere with warfarin. In the study described, 10 μmol/L of warfarin was added to the culture media 18 h before adding vitamin K. Also during incubation with K vitamins this concentration of warfarin was present.

Data set [6] has as its system MG63 cell line. In words: K epoxide formation in the presence of warfarin in MG63. In kind it is cell-based. The following applies: 10 μmol/L warfarin. How it is done: as §1
as §4, with “In the study described, 10 μmol/L of warfarin was added to the culture media 18 h before adding vitamin K. Also during incubation with K vitamins this concentration of warfarin was present.” left out

Data set [7] is described as follows: Stability of K vitamins in cell culture media with no cells present. The format is physicochemical. The following applies: 1 μM of each vitamin, three growth media, over 48 hours. How it is done:
Here we have checked the stability of the various forms of vitamin K (1 μM of each) in the three cell culture media with no cells present.

Data set [8] in a line: Stability of MK-7 dissolved in fish oil and krill oil. In kind it is physicochemical. To be noted: for time compositions remained stable: MK-7 mixed with fish oil or krill oil. How it is done: Compositions as described in Examples 2 and 4 (MK-7 dissolved in fish oil and krill oil, respectively) were prepared to a final concentration of 2 μg of MK-7 per g of oil. Samples were prepared in sealed glass bottles and kept in a dark place at room temperature, 40° C. and 100° C., respectively. At regular times, samples were taken and analyzed for their MK-7 content. No loss of MK-7 was observed, even after 2 weeks at 100° C.

In data set [9] the test system is osteocalcin. In words: Carboxylated / non-carboxylated osteocalcin in serum during fish oil and MK-7 intake. In kind it is in vivo, human. The following applies: 5 g/day fish oil plus 10 μg/day MK-7, months 3 and 4. The source says: In the same experiment as described above, also serum was collected, in which carboxylated and non-carboxylated osteocalcin species were monitored using the conformation-specific osteocalcin kits from Takara (Japan).

Data set [10] deals with Matrix Gla-Protein (MGP). In words: Carboxylated / non-carboxylated MGP in plasma by sandwich ELISA during fish oil and MK-7 intake. In kind it is in vivo, human. The following applies: 5 g/day fish oil plus 10 μg/day MK-7, months 2, 3 and 4. On the procedure: (§5) Twenty healthy males (43±8 years of age) were enrolled in the study. The mean body mass index was 25.1±3.5 kg/m^2. All subjects received 5 grams of fish oil (containing 35% EPA, 25% DHA and 10% other n-3 PUFA) per day during 4 months. During the last 3 months of the study all volunteers received additionally one soft gel capsule per day providing 10 μg of MK-7. Blood samples were collected in citrate every month to prepare platelet-rich plasma. The endogenous thrombin potential (ETP), reflecting the total thrombin activity during coagulation, was monitored according to H. C. Hemker et al. (Pathophysiology of Haemostasis and Thrombosis 2003; 33:4-15). Carboxylated and non-carboxylated Matrix Gla-Protein (MGP) species were monitored using sandwich ELISAs based on conformation-specific antibodies obtained from VitaK BV (Maastricht, The Netherlands) with normal pooled plasma as a reference. The ratio between carboxylated and non-carboxylated MGP is taken as a measure for vascular vitamin K status. All values are expressed as a percentage of those in the pooled reference plasma.
On the technique in general: ELISA stands for enzyme-linked immunosorbent assay.

Data set [11] deals with endogenous thrombin potential (ETP). Kind of data set: Endogenous thrombin potential (ETP) in platelet-rich plasma of volunteers on fish oil, with or without MK-7. The format is in vivo, human.
Text: as §5, with “During the last 3 months of the study all volunteers received additionally one soft gel capsule per day providing 10 μg of MK-7.” left out

The test system of data set [12] is MG63. Kind of data set: Cellular MK-7 uptake in MG63. The format is cell-based. The following applies: FIG. 5D. On the procedure: as §1, §2
Data set [13] relates to blood clotting factor carboxylation. To be noted: dosages as high as 100 μg per day; cited from earlier work.
Data set [14] relates to vascular smooth muscle cells. Kind of data set: Cellular MK-7 uptake in vascular smooth muscle cells. The format is cell-based. To be noted: FIG. 5D. How it is done: as §1, §2

For the molecule `CC(C)=CCC/C(C)=C/CC/C(C)=C/CC/C(C)=C/CC1=C(C)C(=O)c2ccccc2C1=O` [MK-4], in data set [1], the “cellular uptake compared with other K vitamins” value is “much less”. For the same molecule, in data set [2], the “Carboxylated matrix Gla-protein in the culture medium” value (“Carboxylated matrix Gla-protein” below) came to 10.7 ng/mL. The “Carboxylated osteocalcin in the culture medium” value (shortened to “Carboxylated osteocalcin”) in data set [3] stood at 4.1 ng/mL. Also, the “epoxides found without warfarin at decreased fetal calf serum” value in [4] is reported as “mainly found”. Moreover, the interference with warfarin result in data set [5] is reported as “interfere substantially”. In addition, the “K vitamin epoxides identified in the presence of warfarin” value in data set [6] is “could only identify MK-4 epoxide”.
Regarding `CC1=C(C/C=C(\C)CCC[C@H](C)CCC[C@H](C)CCCC(C)C)C(=O)c2ccccc2C1=O` [K1, vitamin K1, reference compound], the “cellular uptake compared with other K vitamins” value in data set [1] is “much less”. In [2], the “Carboxylated matrix Gla-protein” value stood at 12.4 ng/mL. The “Carboxylated osteocalcin” value in data set [3] is 3.2 ng/mL. For the same molecule, the “epoxides found without warfarin at decreased fetal calf serum” value in data set [4] is “mainly found”. In [5], the interference with warfarin entry was “interfere substantially”. Also, the “stability in growth media” value in [7] is listed as “fairly stable”.
Turning to `CC(C)=CCC/C(C)=C/CC/C(C)=C/CC/C(C)=C/CC/C(C)=C/CC/C(C)=C/CC/C(C)=C/CC/C(C)=C/CC/C(C)=C/CC1=C(C)C(=O)c2ccccc2C1=O` [MK-9], the “cellular uptake compared with other K vitamins” value in data set [1] is “somewhat less”. Also, the “utilization of K-vitamins in the presence of warfarin (rank order)” value (from here on “utilization of K-vitamins”) in [5] (10 μmol/L warfarin) is reported as “MK-7>MK-8>MK-9”. In [5] (10 μmol/L warfarin, FIG. 7), the “epoxide formation in the presence of warfarin” value was “hardly formed”. Besides, in [7], the “stability in growth media” value was “fairly stable”.
On to `CC(C)=CCC/C(C)=C/CC/C(C)=C/CC/C(C)=C/CC/C(C)=C/CC/C(C)=C/CC/C(C)=C/CC/C(C)=C/CC1=C(C)C(=O)c2ccccc2C1=O` [MK-8], for which the “cellular uptake compared with other K vitamins” value in data set [1] is on record as “somewhat less”. Besides, the “utilization of K-vitamins” value in [5] (10 μmol/L warfarin) was “MK-7>MK-8>MK-9”. For the same molecule, in [7], the “stability in growth media” value was “fairly stable”.
On to `CC(C)=CCC/C(C)=C/CC/C(C)=C/CC/C(C)=C/CC/C(C)=C/CC/C(C)=C/CC/C(C)=C/CC1=C(C)C(=O)c2ccccc2C1=O` [MK-7], for which the “loss of MK-7 content” value in data set [8] (2 μg MK-7 per g fish oil or krill oil, sealed glass bottles, dark, room temperature, 40° C., 100° C., even after 2 weeks at 100° C.) is “No loss”. The “time compositions remained stable” value is recorded as at least 6 months in data set [8] (40° C.), “at least 2 weeks” in data set [8] (100° C.) and at least 3 years in data set [8] (room temperature). In addition, the “change in osteocalcin carboxylation” value in data set [9] is reported as “significance was lost”. Further, the “cellular uptake compared with other K vitamins” value in data set [1] is listed as “taken up better than other K vitamins”. The “cellular uptake compared with other K vitamins (dose-response, Experiment 6)” value in data set [1] (all systems, notably extrahepatic cells, cells at 80% confluence) is reported as “taken up surprisingly better than the other K vitamins”. For the same molecule, the “cellular uptake compared with other K vitamins (time course, Experiment 7)” value in data set [1] (all three cell systems, mixture 1 μmol/L) is given as “taken up better than any of the other vitamins”. Besides, the “Carboxylated matrix Gla-protein” value in data set [2] is given as 13.5 ng/mL. The “change in MGP carboxylation (ratio carboxylated / non-carboxylated MGP)” value in data set [10] is recorded as “significance was lost”. For the same molecule, the “Carboxylated osteocalcin” value in [3] was found to be 3.9 ng/mL. In addition, the “fish-oil induced hypocoagulability (ETP)” value in [11] (10 μg/day MK-7 during last 3 of 4 months on 5 g/day fish oil) was “not counteracted”. Besides, the “ETP lowering effect of marine oils” value in data set [11] (MK-7 100 μg per day and higher, marine oil intake 5 grams per day) is listed as “completely reversed”. The “endogenous thrombin potential (ETP)” value in [11] (MK-7 between 1 and 10 μg/day, marine oil intake 5 grams per day) is recorded as “did not affect”. Besides, the figures for the “vitamin K uptake compared between cell types” value in [12] and in data set [14] were “lowest” and “highest”, respectively. In [5] (10 μmol/L warfarin), the “utilization of K-vitamins” value is listed as “MK-7>MK-8>MK-9”. Further, the “effect on warfarin anticoagulation” value in data set [13] was “counteract the effect of warfarin”. For the same molecule, in [7], the “stability in growth media” value was “fairly stable”.

(Values after US20100048704A1, “PHARMACEUTICAL AND NUTRACEUTICAL PRODUCTS COMPRISING VITAMIN K2” (NATTOPHARMA ASA, priority 2006, published 2010).)
